We go through 3 compounds from patent publication US9012439B2, “Use of electrophilic compounds for inducing platelet production or maintaining platelet function” (University of Rochester, priority 2007, dated 2015).

For one test, the system named is C57BL/6 mice. In words: Irradiation-induced thrombocytopenia (5 Gy total body irradiation). Format: in vivo, mouse (C57BL/6). Conditions: 5 Gy. The method, then: Seven or 8-week-old male C57BL/6 mice (Jackson Laboratories) were either exposed to 5 Gy cesium (Cs^137) total body irradiation (TBI) using a Model 8114 6000 Curie Shepherd Cs^137 irradiator (approximately 3200 Curie sealed Cs^137 source) with a dose rate of […] or left unexposed. Mice (n=4) received intravenous injections of vehicle (8% DMSO) or 15d-PGJ2 (1 mg/kg) or CDDO-Me (250 μg/kg) for 4 consecutive days from day 1 (days 1, 2, 3 and 4 post-irradiation). Blood was obtained from the aorta or the orbital sinus. Platelets were counted prior to radiation exposure and after radiation exposure on day 10, day 22, and day 31 in Example 7, or days 4, 10, 16, and 21 in Example 9 using the Heska® CBC-Diff™ Veterinary Analyzer (Fort Collins, Colo.). Data are expressed as average platelet counts from two separate experiments. For the unirradiated mice, platelets were counted on day 4, day 10, and day 15 in Example 7 or on the same days in Example 9.

Test [1] concerns primary mouse megakaryocytes. In words: DNA content analysis of primary mouse megakaryocytes. Format: cell-based. Conditions: by 24 h. The method, then: Bone marrow was isolated from the femora of male C57BL/6 mice (Jackson Laboratories, Bar Harbor, Me.) and plated at a concentration of 1×10^6 cells per well in 12-well plates in IMDM (Iscove's Modified Dulbecco's Media, Invitrogen) with 20% BIT 9500 (BSA, insulin, transferrin) and supplemented with 100 ng/mL of rhTPO. Cells were cultured for 5 days, following which 15d-PGJ2 (10 μM) was added to the culture medium for 24 h. On the sixth day, cells were examined by phase-contrast microscopy using an inverted microscope (Olympus IX81) and images were captured using SPOT RT software (New Hyde Park, N.Y.). Megakaryocytes were identified by preincubating with anti-mouse CD16/32 (FcγR-blocking antibody) and then incubating with PE-conjugated hamster anti-mouse CD41 antibody.
Cells were fixed in 95% ethanol, treated with RNAse (Sigma) followed by 20 μg/mL propidium iodide (Sigma) to stain DNA, and analyzed by flow cytometry.

Test [2] deals with mouse megakaryocyte progenitors (Meg-CFC). In words: Megakaryocyte progenitor (Meg-CFC) assay on bone marrow of treated mice. The class given is in vivo. As for the experimental part: Primary mouse bone marrow cells were suspended in IMDM at a concentration of 8×10^6 cells/mL. Two-hundred thousand cells were plated in IMDM supplemented with 20% BIT9500, 0.2% 2-mercaptoethanol, 2% Glutamax, and 20% Cellgro-H20 (Mediatech, Herndon, Va.) and cultured with rhTPO (50 ng/mL), IL-3 (10 ng/mL) (Preprotech, Rocky Hill, N.J.), IL-6 (20 ng/mL) (Preprotech), IL-11 (Preprotech) (50 ng/mL), and collagen at 37° for 7 days (Tober et al., “The Megakaryocyte Lineage Originates from Hemangioblast Precursors and is an Integral Component Both of Primitive and of Definitive Hematopoiesis,” Blood 109:1433-1441 (2007), which is hereby incorporated by reference in its entirety). Collagen gels were dehydrated, fixed, and labeled with GPIbβ and GPV, modified by ABC (Vector Labs, Burlingame, Calif.), and developed in Vector Red (Vector Labs). Meg-CFC were defined by their ability to generate colonies containing at least three megakaryocytes.

For test [3], the system named is Meg-01 cells. In words: Platelet production from Meg-01 cells (flow cytometry). Conditions: Meg-01 cells; 5 mM GSH-EE or 1 mM NAC for 2 h, then 15d-PGJ2 24 h. The class given is cell-based, human. As for the experimental part: Meg-01 and M07e cells were purchased from the American Type Culture Collection (Rockville, Md.) and Dami cells were a generous gift from Dr. Patricia J. Simpson-Haidaris (University of Rochester). All cells were cultured in RPMI-1640 tissue culture medium (Invitrogen) supplemented with 5% fetal bovine serum (FBS; Invitrogen), 10 mM HEPES (N-2-hydroxyethylpiperazine-N′-2-ethanesulfonic acid; Sigma), 2 mM L-glutamine (Invitrogen), 4.5 g/L glucose (Invitrogen), and 50 μg/mL gentamicin (Invitrogen). M07e cells were also supplemented with 100 ng/mL of granulocyte monocyte-colony stimulating factor (GM-CSF, R&D Systems). All treatments were performed in normal growth media. Dimethyl sulfoxide (DMSO) was used as a vehicle (control) in the experiments described below.
Platelets were isolated from megakaryocytes by centrifugation at 150 xg for 10 min. Supernatants underwent sequential centrifugation (500 xg for 10 min and 1000×g for 10 min). The remaining platelet pellet was fixed then permeabilized with a CD61 or CD41 antibody. 7-AAD (BD Pharmingen) was added for 10 min before analyzing the cells by flow cytometry. Platelets were identified using three well-described parameters (Patel et al., “The Biogenesis of Platelets from Megakaryocyte Proplatelets,” J Clin Invest 115:3348-3354 (2005); Breton-Gorius et al., “Expression of Platelet Proteins During the In Vitro and In Vivo Differentiation of Megakaryocytes and Morphological Aspects of Their Maturation,” Semin Hematol 23:43-67 (1986); Ogura et al., “Establishment of a Novel Human Megakaryoblastic Leukemia Cell Line, MEG-01, With Positive Philadelphia Chromosome,” Blood 66:1384-1392 (1985) and Franks et al., “A Fluorescence Microscopy Method for Quantifying Levels of Prostaglandin Endoperoxide H Synthase-1 and CD-41 in MEG-01 Cells,” Biol Proced Online 3:54-63 (2001), each of which is hereby incorporated by reference in its entirety), size (using normal human platelets as a control), presence of CD61 or CD41 and lack of DNA as determined by the absence of 7-AAD staining Ten thousand platelet events were collected and platelets were quantified by rate (platelet events/second) (Chung et al., “Platelet Activation in Acute, Decompensated Congestive Heart Failure,” Thromb Res 120:709-713 (2007), which is hereby incorporated by reference in its entirety.
A 19 by target sequence was selected to knock down PPARγ. PPARγ was cloned downstream of the RNA polymerase III U6 promoter and subcloned into a FG12 lentiviral vector which expresses green fluorescent protein (GFP) under the Ubiquitin C promoter. HEK 293 cells expressing this siRNA PPARγ had reduced PPARγ protein levels. To make the lentivirus, HEK 293 cells were co-transfected with 3 plasmids: the envelope vector (CMV-VSVG), the transfer vector (FG12-shRNAPPAR), and the packaging construct (pCMVΔ89.2 (gag/pol proteins)). Viral supernatants were collected every 8 h for 2 days and concentrated by ultracentrifugation at 50,000×g for 2 h at 4° C. using a Beckman SW 28 rotor. Viral titers were determined by infection of HeLa cells with serial dilutions of the viral stocks. Meg-01 cells were infected at a multiplicity of infection (MOI) of 20. After 48 h, approximately 56% of the PPARγ siRNA cells were transduced as determined by flow cytometry. The GFP positive (+) cells were then sorted by FACS and grown in RPMI with 5% FBS.
(A flow cytometer gives signals particle by particle.)

The subject of test [4] is primary human megakaryocytes. In words: Platelet production from human cord blood CD34+-derived megakaryocytes. The class given is cell-based. Conditions: primary human megakaryocytes; 5 mM GSH-EE or 1 mM NAC for 2 h, then 15d-PGJ2 24 h. The method, then:
Human CD34+ cord blood cells were obtained from the National Disease Research Interchange (NDRI, Philadelphia, Pa.). Cells were plated at 2.5×10^5 cells per well in a 12-well plate and cultured in serum-free medium as previously described (Zeuner et al., “Chemotherapy-induced Thrombocytopenia Derives from the Selective Death of Megakaryocyte Progenitors and Can Be Rescued by Stem Cell Factor,” Cancer Res 67:4767-4773 (2007), which is hereby incorporated by reference in its entirety) and supplemented with 100 ng/mL of rhTPO. After 14 days in culture, megakaryocytes were identified by staining with a CD61-FITC antibody and analyzed on a BD Biosciences FACSCalibur flow cytometer. Data were analyzed using FlowJo software (Treestar, Ashland, Oreg.). Cell images were captured using an inverted microscope (Olympus IX81). Platelets were isolated from megakaryocytes by centrifugation at 150 xg for 10 min. Supernatants underwent sequential centrifugation (500 xg for 10 min and 1000×g for 10 min). The remaining platelet pellet was fixed then permeabilized with a CD61 or CD41 antibody. 7-AAD (BD Pharmingen) was added for 10 min before analyzing the cells by flow cytometry. Platelets were identified using three well-described parameters (Patel et al., “The Biogenesis of Platelets from Megakaryocyte Proplatelets,” J Clin Invest 115:3348-3354 (2005); Breton-Gorius et al., “Expression of Platelet Proteins During the In Vitro and In Vivo Differentiation of Megakaryocytes and Morphological Aspects of Their Maturation,” Semin Hematol 23:43-67 (1986); Ogura et al., “Establishment of a Novel Human Megakaryoblastic Leukemia Cell Line, MEG-01, With Positive Philadelphia Chromosome,” Blood 66:1384-1392 (1985) and Franks et al., “A Fluorescence Microscopy Method for Quantifying Levels of Prostaglandin Endoperoxide H Synthase-1 and CD-41 in MEG-01 Cells,” Biol Proced Online 3:54-63 (2001), each of which is hereby incorporated by reference in its entirety), size (using normal human platelets as a control), presence of CD61 or CD41 and lack of DNA as determined by the absence of 7-AAD staining Ten thousand platelet events were collected and platelets were quantified by rate (platelet events/second) (Chung et al., “Platelet Activation in Acute, Decompensated Congestive Heart Failure,” Thromb Res 120:709-713 (2007), which is hereby incorporated by reference in its entirety.

Test [5] concerns primary human megakaryocytes. In words: Reactive oxygen species production in primary human megakaryocytes. The class given is cell-based. Conditions: pretreatment before 15d-PGJ2. As for the experimental part: Human CD34+ cord blood cells were obtained from the National Disease Research Interchange (NDRI, Philadelphia, Pa.). Cells were plated at 2.5×10^5 cells per well in a 12-well plate and cultured in serum-free medium as previously described (Zeuner et al., “Chemotherapy-induced Thrombocytopenia Derives from the Selective Death of Megakaryocyte Progenitors and Can Be Rescued by Stem Cell Factor,” Cancer Res 67:4767-4773 (2007), which is hereby incorporated by reference in its entirety) and supplemented with 100 ng/mL of rhTPO. After 14 days in culture, megakaryocytes were identified by staining with a CD61-FITC antibody and analyzed on a BD Biosciences FACSCalibur flow cytometer. Data were analyzed using FlowJo software (Treestar, Ashland, Oreg.). Cell images were captured using an inverted microscope (Olympus IX81). Ten μM carboxy-H2DCFDA was added to cells for 20 min at RT. The cells were washed and immediately analyzed by flow cytometry. Five μM of MitoSOX Red dye in HBSS containing Mg^2+ and Ca^2+ was added to the cells for 15 min at 37° C. The cells were washed in HBSS and analyzed by flow cytometry.

Test [6] concerns Meg-01 cells. In words: Reactive oxygen species production in Meg-01 cells (carboxy-H2DCFDA, MitoSOX Red). Format: cell-based, human. Conditions: Meg-01 cells, pretreatment before 15d-PGJ2. As for the experimental part:
Ten μM carboxy-H2DCFDA was added to cells for 20 min at RT. The cells were washed and immediately analyzed by flow cytometry. Five μM of MitoSOX Red dye in HBSS containing Mg^2+ and Ca^2+ was added to the cells for 15 min at 37° C. The cells were washed in HBSS and analyzed by flow cytometry.

On to `COC(=O)[C@]12CCC(C)(C)C[C@H]1[C@H]1C(=O)C=C3[C@@]4(C)C=C(C#N)C(=O)C(C)(C)[C@@H]4CC[C@@]3(C)[C@]1(C)CC2` [CDDO-Me, methyl-2-cyano-3,12-dioxooleana-1,9-dien-28-oate], for which the platelet counts entry is listed as “increased platelet counts” in the test on C57BL/6 mice (250 μg/kg days 1-4, day 4); “significantly improved platelet counts” with C57BL/6 mice (250 μg/kg days 1-4, days 10 and 16). The “primary mouse megakaryocyte ploidy” value in test [1] was “enhanced primary mouse megakaryocyte ploidy”. In addition, the megakaryocyte number result in test [2] is listed as “failed to increase megakaryocyte number”. In test [2] (mice injected 250 μg/kg for three consecutive days, 7 days of culture), the “percentage of megakaryocytes producing proplatelets” value is given as “significantly augmented the percentage of megakaryocytes producing proplatelets”. In addition, the “Meg-CFC colony formation compared to vehicle control” value in test [2] (normal mice, 250 μg/kg for three consecutive days, bone marrow plated day 4) is “significantly enhanced Meg-CFC colony formation”.

As for `CCOC(=O)CNC(=O)[C@H](CS)NC(=O)CC[C@H](N)C(=O)O` [GSH-EE, glutathione reduced ethyl ester, reference compound], the “effect of antioxidant pretreatment on 15d-PGJ2-induced platelet production” value (with Meg-01 cells [3]; in test [4]) was “attenuate 15d-PGJ2-induced platelet production” throughout. The “effect of antioxidant pretreatment on 15d-PGJ2 ROS induction” value in test [5] was “attenuated both ROS induction and platelet formation”; with Meg-01 cells [6], “attenuated both ROS induction and platelet formation”.

Turning to `CC(=O)N[C@@H](CS)C(=O)O` [NAC, N-acetylcysteine, reference compound], the “effect of antioxidant pretreatment on 15d-PGJ2-induced platelet production” value (in the test on Meg-01 cells [3]; in test [4]) was “attenuate 15d-PGJ2-induced platelet production” in each case. Also, the “effect of antioxidant pretreatment on 15d-PGJ2 ROS induction” value was “attenuated both ROS induction and platelet formation” in test [5]; “attenuated both ROS induction and platelet formation” with Meg-01 cells [6].
